In PubChem BioAssay (NCI) one finds TGI and GI50 data, which are given here for eleven compounds.

Several values for one entry are separate records, joined by “and”; a condition that tells them apart may be missing. Identical values can stand only once.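 Interpolation was linear, between the two tested concentrations surrounding the appropriate level; five concentrations were tested over 48 hours in 96-well plates. GI50 = concentration required for 50% inhibition of growth. TGI is the concentration that stops growth completely.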

The first assay has as its system CCRF-CEM leukemia. Put plainly: growth of human tumour cells (NCI), 48 h.
Take `CN1NC(=Nc2ccccc2)Sc2c1cnn(-c1ccccc1)c2=O`: the TGI was over 100 µM.

With `C1C[OH+]CCNCC[OH+]CC[OH+]CCN1.[Cl-].[Pt+4]`, the GI50 was 51.4 µM and the TGI was over 100 µM.

As to `COC(=O)/C(C)=C/[N+](=O)[O-]`, the TGI worked out at 6.48 µM.

Regarding `COc1cccc(-n2c3nc(=O)n(C)c(=O)c-3nc3ccccc32)c1`, the TGI was determined as 79.1 µM.

`COC(=O)OCC1OC(N2C(=O)NC(=O)C(Br)C2N=[N+]=[N-])CC1OC(=O)OC` (centres undefined): the TGI is over 100 µM.

`CC12CCCCC1(C)C2Sc1ccccc1` (centres undefined) displayed a TGI of 44.4 µM.

With `C[C@@]12CCCc3coc(c31)C(=O)c1cc3c(cc12)C(=O)C=CC3=O`, the TGI amounted to 7.74 µM.

`C=CCNC(=O)N(CCC)CCCCC(NC(C)=O)C(=O)NCc1ccccc1` (centres undefined) registered a TGI of over 100 µM.

Consider `N.N.N.N.[Cl-].[Co+3].[N-]=[N+]=[N-].[N-]=[N+]=[N-]`, for which the GI50 is 91.6 µM and the TGI is over 100 µM.

`CN[C@@H](C)[C@H](NC)c1ccccc1`: the TGI was over 100 µM.

Another assay has as its system HCC-2998 colon. Put plainly: growth of human tumour cells (NCI), 48 h.
In the case of `CN1NC(=Nc2ccccc2)Sc2c1cnn(-c1ccccc1)c2=O`, the TGI was over 100 µM.

Take `C1C[OH+]CCNCC[OH+]CC[OH+]CCN1.[Cl-].[Pt+4]`: the GI50 is over 100 µM and the TGI was over 100 µM.

Take `COC(=O)/C(C)=C/[N+](=O)[O-]`: the TGI is 32.1 µM.

Regarding `COc1cccc(-n2c3nc(=O)n(C)c(=O)c-3nc3ccccc32)c1`, the TGI worked out at 38.9 µM.

`COC(=O)OCC1OC(N2C(=O)NC(=O)C(Br)C2N=[N+]=[N-])CC1OC(=O)OC` (centres undefined) came in with a TGI of over 100 µM.

`CC12CCCCC1(C)C2Sc1ccccc1` (centres undefined): the TGI was over 100 µM.

`C[C@@]12CCCc3coc(c31)C(=O)c1cc3c(cc12)C(=O)C=CC3=O`: the GI50 is over 1 µM; the TGI is > 1 µM and 69.7 µM.

With `C=CCNC(=O)N(CCC)CCCCC(NC(C)=O)C(=O)NCc1ccccc1` (centres undefined), the TGI is over 100 µM.

In the case of `N.N.N.N.[Cl-].[Co+3].[N-]=[N+]=[N-].[N-]=[N+]=[N-]`, the GI50 was over 100 µM and the TGI was over 100 µM.

`CN[C@@H](C)[C@H](NC)c1ccccc1` registered a TGI of over 100 µM.

Compound `C=C1C(=O)O[C@H]2/C=C(/C)C3=CC(=O)[C@@](C)(C[C@@H](OC(=O)/C(C)=C\C)C12)O3` (some centres undefined) registered a TGI of 3.28 µM.

In another assay the test system is HT29 colon. Nature of the assay: growth of human tumour cells (NCI), 48 h.
`CN1NC(=Nc2ccccc2)Sc2c1cnn(-c1ccccc1)c2=O`: the TGI is over 100 µM.

For the compound `C1C[OH+]CCNCC[OH+]CC[OH+]CCN1.[Cl-].[Pt+4]`, the GI50 is over 100 µM and the TGI is over 100 µM.

Consider `COC(=O)/C(C)=C/[N+](=O)[O-]`, for which the TGI was 43.2 µM.

In turn, `COc1cccc(-n2c3nc(=O)n(C)c(=O)c-3nc3ccccc32)c1` came in with a TGI of 40.8 µM.

Compound `COC(=O)OCC1OC(N2C(=O)NC(=O)C(Br)C2N=[N+]=[N-])CC1OC(=O)OC` (centres undefined) returned a TGI of over 100 µM.

In turn, `CC12CCCCC1(C)C2Sc1ccccc1` (centres undefined) displayed a TGI of over 100 µM.

For the compound `C[C@@]12CCCc3coc(c31)C(=O)c1cc3c(cc12)C(=O)C=CC3=O`, the GI50 was over 1 µM; the TGI is > 1 µM and 44.9 µM.

As to `C=CCNC(=O)N(CCC)CCCCC(NC(C)=O)C(=O)NCc1ccccc1` (centres undefined), the TGI was over 100 µM.

In the case of `N.N.N.N.[Cl-].[Co+3].[N-]=[N+]=[N-].[N-]=[N+]=[N-]`, the GI50 was over 100 µM and the TGI was over 100 µM.

`CN[C@@H](C)[C@H](NC)c1ccccc1` yielded a TGI of over 100 µM.

With `C=C1C(=O)O[C@H]2/C=C(/C)C3=CC(=O)[C@@](C)(C[C@@H](OC(=O)/C(C)=C\C)C12)O3` (some centres undefined), the TGI worked out at 1.21 µM.

Another assay has as its system SN12C renal. Nature of the assay: growth of human tumour cells (NCI), 48 h.
In turn, `CN1NC(=Nc2ccccc2)Sc2c1cnn(-c1ccccc1)c2=O` came in with a TGI of over 100 µM.

For `C1C[OH+]CCNCC[OH+]CC[OH+]CCN1.[Cl-].[Pt+4]`, the GI50 was over 100 µM and the TGI was over 100 µM.

`COC(=O)/C(C)=C/[N+](=O)[O-]` displayed a TGI of 41 µM.

`COc1cccc(-n2c3nc(=O)n(C)c(=O)c-3nc3ccccc32)c1` showed a TGI of 30.8 µM.

Turning to `COC(=O)OCC1OC(N2C(=O)NC(=O)C(Br)C2N=[N+]=[N-])CC1OC(=O)OC` (centres undefined), the TGI is over 100 µM.

The compound `CC12CCCCC1(C)C2Sc1ccccc1` (centres undefined) yielded a TGI of over 100 µM.

On to `C[C@@]12CCCc3coc(c31)C(=O)c1cc3c(cc12)C(=O)C=CC3=O`, for which the GI50 is over 1 µM; the TGI was > 1 µM and 38.6 µM.

`C=CCNC(=O)N(CCC)CCCCC(NC(C)=O)C(=O)NCc1ccccc1` (centres undefined) registered a TGI of over 100 µM.

On to `N.N.N.N.[Cl-].[Co+3].[N-]=[N+]=[N-].[N-]=[N+]=[N-]`, for which the GI50 is over 100 µM and the TGI was over 100 µM.

`CN[C@@H](C)[C@H](NC)c1ccccc1` came in with a TGI of over 100 µM.

The compound `C=C1C(=O)O[C@H]2/C=C(/C)C3=CC(=O)[C@@](C)(C[C@@H](OC(=O)/C(C)=C\C)C12)O3` (some centres undefined) had a TGI of 3.37 µM.

Another assay deals with SNB-19 CNS. Put plainly: growth of human tumour cells (NCI), 48 h.
`CN1NC(=Nc2ccccc2)Sc2c1cnn(-c1ccccc1)c2=O` displayed a TGI of over 100 µM.

For `C1C[OH+]CCNCC[OH+]CC[OH+]CCN1.[Cl-].[Pt+4]`, the GI50 was over 100 µM and the TGI is over 100 µM.

`COC(=O)/C(C)=C/[N+](=O)[O-]` displayed a TGI of 32.9 µM.

`COc1cccc(-n2c3nc(=O)n(C)c(=O)c-3nc3ccccc32)c1` had a TGI of 74.3 µM.

As to `COC(=O)OCC1OC(N2C(=O)NC(=O)C(Br)C2N=[N+]=[N-])CC1OC(=O)OC` (centres undefined), the TGI is over 100 µM.

For `CC12CCCCC1(C)C2Sc1ccccc1` (centres undefined), the TGI is over 100 µM.

In the case of `C[C@@]12CCCc3coc(c31)C(=O)c1cc3c(cc12)C(=O)C=CC3=O`, the GI50 is over 1 µM and the TGI is over 100 µM.

`C=CCNC(=O)N(CCC)CCCCC(NC(C)=O)C(=O)NCc1ccccc1` (centres undefined): the TGI is over 100 µM.

As for `N.N.N.N.[Cl-].[Co+3].[N-]=[N+]=[N-].[N-]=[N+]=[N-]`, the GI50 is over 100 µM and the TGI is over 100 µM.

`CN[C@@H](C)[C@H](NC)c1ccccc1` registered a TGI of over 100 µM.

The compound `C=C1C(=O)O[C@H]2/C=C(/C)C3=CC(=O)[C@@](C)(C[C@@H](OC(=O)/C(C)=C\C)C12)O3` (some centres undefined) showed a TGI of 29.7 µM.

The test system of the next assay is SW-620 colon. Nature of the assay: growth of human tumour cells (NCI), 48 h.
Consider `CN1NC(=Nc2ccccc2)Sc2c1cnn(-c1ccccc1)c2=O`, for which the TGI is over 100 µM.

Take `C1C[OH+]CCNCC[OH+]CC[OH+]CCN1.[Cl-].[Pt+4]`: the GI50 was over 100 µM and the TGI is over 100 µM.

On to `COC(=O)/C(C)=C/[N+](=O)[O-]`, for which the TGI turned out to be 26.8 µM.

Regarding `COc1cccc(-n2c3nc(=O)n(C)c(=O)c-3nc3ccccc32)c1`, the TGI was 51.6 µM.

Turning to `COC(=O)OCC1OC(N2C(=O)NC(=O)C(Br)C2N=[N+]=[N-])CC1OC(=O)OC` (centres undefined), the TGI was over 100 µM.

`CC12CCCCC1(C)C2Sc1ccccc1` (centres undefined) had a TGI of over 100 µM.

Consider `C[C@@]12CCCc3coc(c31)C(=O)c1cc3c(cc12)C(=O)C=CC3=O`, for which the GI50 is over 1 µM; the TGI is > 1 µM and 20.1 µM.

As to `C=CCNC(=O)N(CCC)CCCCC(NC(C)=O)C(=O)NCc1ccccc1` (centres undefined), the TGI is over 100 µM.

Consider `N.N.N.N.[Cl-].[Co+3].[N-]=[N+]=[N-].[N-]=[N+]=[N-]`, for which the GI50 is over 100 µM and the TGI was over 100 µM.

`CN[C@@H](C)[C@H](NC)c1ccccc1` gave a TGI of over 100 µM.

The subject of the next assay is U251 CNS. Put plainly: growth of human tumour cells (NCI), 48 h.
On to `CN1NC(=Nc2ccccc2)Sc2c1cnn(-c1ccccc1)c2=O`, for which the TGI was over 100 µM.

On to `C1C[OH+]CCNCC[OH+]CC[OH+]CCN1.[Cl-].[Pt+4]`, for which the GI50 was over 100 µM and the TGI was over 100 µM.

The compound `COC(=O)/C(C)=C/[N+](=O)[O-]` gave a TGI of 32.5 µM.

On to `COc1cccc(-n2c3nc(=O)n(C)c(=O)c-3nc3ccccc32)c1`, for which the TGI turned out to be 38.2 µM.

As to `COC(=O)OCC1OC(N2C(=O)NC(=O)C(Br)C2N=[N+]=[N-])CC1OC(=O)OC` (centres undefined), the TGI was over 100 µM.

`CC12CCCCC1(C)C2Sc1ccccc1` (centres undefined): the TGI was over 67.2 µM.

Turning to `C[C@@]12CCCc3coc(c31)C(=O)c1cc3c(cc12)C(=O)C=CC3=O`, the GI50 is over 1 µM and the TGI was over 100 µM.

In the case of `C=CCNC(=O)N(CCC)CCCCC(NC(C)=O)C(=O)NCc1ccccc1` (centres undefined), the TGI is over 100 µM.

Consider `N.N.N.N.[Cl-].[Co+3].[N-]=[N+]=[N-].[N-]=[N+]=[N-]`, for which the GI50 is over 100 µM and the TGI is over 100 µM.

On to `CN[C@@H](C)[C@H](NC)c1ccccc1`, for which the TGI is over 100 µM.

`C=C1C(=O)O[C@H]2/C=C(/C)C3=CC(=O)[C@@](C)(C[C@@H](OC(=O)/C(C)=C\C)C12)O3` (some centres undefined) returned a TGI of 9.48 µM.

The subject of the next assay is UACC-62 melanoma. Put plainly: growth of human tumour cells (NCI), 48 h.
Compound `CN1NC(=Nc2ccccc2)Sc2c1cnn(-c1ccccc1)c2=O` returned a TGI of over 100 µM.

As to `C1C[OH+]CCNCC[OH+]CC[OH+]CCN1.[Cl-].[Pt+4]`, the GI50 is over 100 µM and the TGI is over 100 µM.

In turn, `COC(=O)/C(C)=C/[N+](=O)[O-]` returned a TGI of 32.8 µM.

`COc1cccc(-n2c3nc(=O)n(C)c(=O)c-3nc3ccccc32)c1` displayed a TGI of 19.5 µM.

`COC(=O)OCC1OC(N2C(=O)NC(=O)C(Br)C2N=[N+]=[N-])CC1OC(=O)OC` (centres undefined) yielded a TGI of over 100 µM.

`CC12CCCCC1(C)C2Sc1ccccc1` (centres undefined): the TGI is over 100 µM.

On to `C[C@@]12CCCc3coc(c31)C(=O)c1cc3c(cc12)C(=O)C=CC3=O`, for which the GI50 was over 1 µM; the TGI was > 1 µM and 32.1 µM.

Turning to `C=CCNC(=O)N(CCC)CCCCC(NC(C)=O)C(=O)NCc1ccccc1` (centres undefined), the TGI was over 100 µM.

Regarding `N.N.N.N.[Cl-].[Co+3].[N-]=[N+]=[N-].[N-]=[N+]=[N-]`, the GI50 is over 100 µM and the TGI was over 100 µM.

`CN[C@@H](C)[C@H](NC)c1ccccc1`: the TGI is over 100 µM.

`C=C1C(=O)O[C@H]2/C=C(/C)C3=CC(=O)[C@@](C)(C[C@@H](OC(=O)/C(C)=C\C)C12)O3` (some centres undefined) returned a TGI of 3.36 µM.
